Laboratory results as given in ChEMBL document CHEMBL1128143, “The synthesis of 5-substituted camptothecins as potential inhibitors of DNA topoisomerase I” (1995).

How the values were obtained:
Format in all cases: functional
KB = experiment: Inhibitory activity against protein linked DNA breaks in KB cells at 25 ug/mL after 1 hour; settings: Homo sapiens
A549 = experiment: Inhibitory activity against A549 cell line; inactive; settings: Homo sapiens, read-out: ID50 (the source's name)
BT-549 = experiment: Inhibitory activity against BT549 cell line; inactive; settings: Homo sapiens, read-out: ID50 (the source's name)
PLC = experiment: Inhibitory activity against PLC cell line; inactive; settings: Homo sapiens, read-out: ID50 (the source's name)
SW480 = experiment: Inhibitory activity against SW480 cell line; inactive; settings: Homo sapiens, read-out: ID50 (the source's name)

SMILES	inhibition at 25 µg/mL (KB) [%]	IC50 (A549) [µM]	IC50 (BT-549) [µM]	IC50 (PLC) [µM]	IC50 (SW480) [µM]
CC[C@@]1(O)C(=O)OCc2c1cc1n(c2=O)Cc2cc3ccccc3nc2-1 [CAMPTOTHECIN]	100	–	–	–	–
CC[C@@]1(O)C(=O)OCc2c1cc1n(c2=O)Cc2c-1nc1ccccc1c2CO	97.6	–	–	–	–
CC[C@@]1(O)C(=O)OCc2c1cc1n(c2=O)[C@H](CO)c2cc3ccccc3nc2-1	20.4	> 5	> 5	> 5	> 5
CC[C@@]1(O)C(=O)OCc2c1cc1n(c2=O)[C@H](C(=O)c2cc(OC)c(OC)c(OC)c2)c2cc3ccccc3nc2-1	0	> 5	> 5	> 5	> 5
CC[C@@]1(O)C(=O)OCc2c1cc1n(c2=O)[C@@H](CO)c2cc3ccccc3nc2-1	8.7	> 5	> 5	> 5	> 5
CC[C@@]1(O)C(=O)OCc2c1cc1n(c2=O)Cc2c-1nc1ccccc1c2C=O	107	–	–	–	–
CC[C@@]1(O)C(=O)OCc2c1cc1n(c2=O)C(CO)(CO)c2cc3ccccc3nc2-1	0	> 5	> 5	> 5	> 5
